The source of these data is patent EP0040150A1, “Fluoromethylated tyrosine methyl ester” (MERRELL TORAUDE ET COMPAGNIE, priority 1980, dated 1981).

The test system of one data set is catecholamines. Nature of the data set: Catecholamine levels in rat brain and heart after dosing (HPLC with electrochemical detection). It is filed as in vivo, rats. The following applies: for selectivity (brain catecholamines versus heart catecholamines and 5-HT): compared with the methyl ester. On the procedure: The animals are kept on a constant 12 hour day-night cycle, and body weights are measured daily. The animals are sacrificed by decapitation 12 to 24 hours after receiving the last dose of the test compound. Control animals receive the vehicle alone. Rats in single dose tests were fasted for 24 hours before administration of the test compound whilst rats in multiple dose tests were allowed free access to food and water. Immediately after death, the brain and heart (where appropriate) are removed and separately homogenized either by 50 ml phosphate buffer pH 6.8 for AADC determination or in icecold 0.4 M HC104 containing 0.05% (w/v) EDTA and 0.1% (w/v) sodium bisulfite for catecholamine determination. AADC activity is determined by the ^14C02 trapping method of J. Christenson, Archs. Biochem. Biophys. […] Catecholamines are determined by centrifuging the homogenate, adding the supernatant to alumina buffered to pH 8.0-8.4 to absorb the catecholamines, re-extracting the catecholamines from the alumina with 2.1 M HC104 and determining the catecholamines in the extracts using reversed-phase ion-pair HPLC with electrochemical detection.

For data set [1], the target named is T1, aromatic amino acid decarboxylase (AADC) (Rattus norvegicus, UniProt P14173).
T1 construct: the brain and heart (where appropriate) are removed and separately homogenized; from tissue; host or cells: rat brain and heart homogenates
T1 sequence (P14173 1-480): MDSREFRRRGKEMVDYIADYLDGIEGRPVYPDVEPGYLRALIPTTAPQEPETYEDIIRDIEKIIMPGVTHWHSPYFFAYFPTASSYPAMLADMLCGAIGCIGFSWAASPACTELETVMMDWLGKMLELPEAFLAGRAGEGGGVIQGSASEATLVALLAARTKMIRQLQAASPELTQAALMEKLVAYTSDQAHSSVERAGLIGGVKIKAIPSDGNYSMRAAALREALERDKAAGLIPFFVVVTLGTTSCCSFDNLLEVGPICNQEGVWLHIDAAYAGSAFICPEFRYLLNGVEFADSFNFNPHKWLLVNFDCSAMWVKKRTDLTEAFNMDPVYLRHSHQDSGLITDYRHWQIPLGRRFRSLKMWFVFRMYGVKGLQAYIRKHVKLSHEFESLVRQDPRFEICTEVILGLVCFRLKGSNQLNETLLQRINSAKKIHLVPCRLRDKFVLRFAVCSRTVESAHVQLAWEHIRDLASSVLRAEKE
Kind of data set: AADC activity in rat organ homogenates after dosing (14CO2 trapping method, DL-[1-14C]-dopa as substrate). Format: in vivo, rats. The protocol: (§1) The animals are kept on a constant 12 hour day-night cycle, and body weights are measured daily. The animals are sacrificed by decapitation 12 to 24 hours after receiving the last dose of the test compound. Control animals receive the vehicle alone. Rats in single dose tests were fasted for 24 hours before administration of the test compound whilst rats in multiple dose tests were allowed free access to food and water.
Immediately after death, the brain and heart (where appropriate) are removed and separately homogenized either by 50 ml phosphate buffer pH 6.8 for AADC determination or in icecold 0.4 M HC104 containing 0.05% (w/v) EDTA and 0.1% (w/v) sodium bisulfite for catecholamine determination. AADC activity is determined by the ^14C02 trapping method of J. Christenson, Archs. Biochem. Biophys. 141, 356 (1970) using DL-[1-14C] -dopa as the substrate. Catecholamines are determined by centrifuging the homogenate, adding the supernatant to alumina buffered to pH 8.0-8.4 to absorb the catecholamines, re-extracting the catecholamines from the alumina with 2.1 M HC104 and determining the catecholamines in the extracts using reversed-phase ion-pair HPLC with electrochemical detection.

In the next data set the test system is Serotonin (5-HT). Nature of the data set: Serotonin (5-HT) levels in rat organs after dosing (standard techniques). Format: in vivo, rats. On the procedure:
as §1
In the brain, doses of 10 mg/kg and 200 mg/kg produced a 10% reduction and a 70-80% reduction of AADC activity, respectively. […] In the heart, no reduction of norepinephrine is noted up to a dose of 200 mg/kg. When tested after multiple administration of 10, 25, or 50 mg/kg given daily for six days in rats sacrificed 24 hours after the sixth dose, the compound produced a 50% decrease in brain norephinephrine at a dose of 10 mg/kg (daily). […] Serotonin (5-HT) levels, as assessed by standard techniques, are not altered in the brain even at the highest dose tested.

The nature of data set [2]: Stability of the compound. It is filed as physicochemical.
The nature of the next data set: Solubility in water. Particulars: neutral pH. It is filed as physicochemical.
For another data set, the target named is T2, AADC (Homo sapiens, UniProt P20711).
T2 sequence (P20711 1-480): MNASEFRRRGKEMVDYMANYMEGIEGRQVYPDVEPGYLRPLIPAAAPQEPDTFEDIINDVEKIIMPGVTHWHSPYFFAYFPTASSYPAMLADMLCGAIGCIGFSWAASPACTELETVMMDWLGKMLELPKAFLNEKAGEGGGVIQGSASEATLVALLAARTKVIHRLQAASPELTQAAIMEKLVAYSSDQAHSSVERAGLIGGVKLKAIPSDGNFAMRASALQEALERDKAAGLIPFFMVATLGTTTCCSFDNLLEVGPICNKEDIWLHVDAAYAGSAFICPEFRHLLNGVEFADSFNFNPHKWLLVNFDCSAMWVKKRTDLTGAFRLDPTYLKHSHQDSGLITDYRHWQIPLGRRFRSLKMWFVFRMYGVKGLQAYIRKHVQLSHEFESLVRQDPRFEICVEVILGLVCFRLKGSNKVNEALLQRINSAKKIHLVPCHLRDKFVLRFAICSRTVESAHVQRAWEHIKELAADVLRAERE
Nature of the data set: AADC inhibition, general statement (method not given).

The mark [3] stands for this setting: heart, up to a dose of 200 mg/kg.

Regarding `NC(CF)(Cc1ccc(O)c(O)c1)C(=O)O` (centres unmarked) [Fluoromethyl dopa, reference compound], in the data set on catecholamines, the “selectivity (brain catecholamines versus heart catecholamines and 5-HT)” value is given as “does not exhibit the selectivity”.
In the case of `COC(=O)[C@@H]1[C@H]2C[C@H]3c4[nH]c5ccccc5c4CCN3C[C@@H]2CC[C@@H]1O` [Yohimbine, reference compound], in the data set on catecholamines (yohimbine alone), the “metabolite MOPEG-sulfate” value is reported as “increase” and the norepinephrine entry is on record as “decrease”.
Consider `COC(=O)C(N)(CF)Cc1ccc(O)cc1` (centres unmarked) [methyl 2-amino-2-fluoromethyl-3-(4-hydroxyphenyl)propionate], for which, in data set [1] (animals pretreated with haloperidol, compared with non-haloperidol treated animals), the “inhibition of AADC activity” value is “more pronounced”. In data set [1] (brain, co-administration of -methyl tyrosine (inhibitor of tyrosine hydroxylase)), the “extent of inhibition of AADC activity in the brain” value is reported as “reduces the extent of inhibition”. Besides, the “AADC activity in the heart” value in data set [1] (setting [3]) was “not reduced significantly”. The inhibition at 10 mg/kg in data set [1] (rat, brain, dose 10 mg/kg, read-out: reduction of AADC activity) was 10%. The “additional decrease of norepinephrine produced by yohimbine” value with catecholamines (animals treated for 2 weeks with 10 mg/kg methyl ester, same dose of yohimbine) is given as “no longer produces an additional decrease”. Besides, the “decrease in brain norephinephrine” value is 50% with catecholamines (brain, 10 mg/kg daily for six days, sacrificed 24 hours after the sixth dose) and “do not give an additional response” with catecholamines (brain, higher doses (25 or 50 mg/kg daily for six days) compared with 10 mg/kg). The Brain dopamine decreased in the data set on catecholamines (brain, 50 mg/kg daily for six days) turned out to be 50%. Besides, the Brain norepinephrine decreased with catecholamines (brain, dose 10 mg/kg) is 15-20%; in the data set with catecholamines (brain, dose 200 mg/kg), 50%. Further, the dopamine decreased entry with catecholamines (brain, dose 50 mg/kg) is given as “decreased significantly”; with catecholamines (brain, dose 200 mg/kg), 75%. The Brain dopamine result with catecholamines (brain, lower doses (10, 25 mg/kg daily for six days)) is reported as “no significant effect”. The “endogenous catecholamine levels in the brain” value in the data set with catecholamines (brain, summary statement) is “effective in lowering”. Also, in the data set on catecholamines (combined with yohimbine, up to 8 days of methyl ester treatment), the “decrease of norepinephrine over yohimbine” value is listed as “small additional decrease”. Moreover, the Heart norepinephrine entry in the data set on catecholamines (heart, multiple administration (10, 25 or 50 mg/kg daily for six days), any dose) is “not significantly changed”. Also, the “reduction of norepinephrine in the heart” value with catecholamines (setting [3]) was “no reduction”. For the same compound, the “endogenous 5-HT levels in the brain and heart” value in the data set with Serotonin (5-HT) (brain and heart, summary statement) was “substantially unaltered”. Further, the “Serotonin (5-HT) levels in the brain” value in the data set on Serotonin (5-HT) (brain, multiple administration, even at the highest dose tested) is “not altered”.
Turning to `CC(C)(C)OC(=O)C(N)(CF)Cc1ccc(O)cc1` (centres unmarked) [tert-butyl 2-fluoromethyl-2-amino-3-(4-hydroxyphenyl)-propionate], the stability result in data set [2] is “relatively unstable”.
On to `NC(CF)(Cc1ccc(O)cc1)C(=O)O` (stereo not drawn) [α-fluoromethyl tyrosine, 2-fluoromethyl-2-amino-3-(4-hydroxyphenyl)-propionic acid], for which, in the data set on catecholamines, the “selectivity (brain catecholamines versus heart catecholamines and 5-HT)” value is reported as “same degree of selectivity is not found”. Besides, the solubility in water result in “Solubility in water” is recorded as “insoluble”. Besides, on AADC, the AADC inhibition entry is “weak AADC inhibitor”.
